Assay [1] is filed under the species Bos taurus. Briefly: Activation of actin-stimulated bovine cardiac myosin S1 fragment ATPase activity in sarcomere at 10 uM after 10 mins by spectrophotometric analysis relative to control.
A short description of assay [2]: Activation of actin-stimulated bovine cardiac myosin S1 fragment ATPase activity in sarcomere after 10 mins by spectrophotometric analysis. Also noted: species or system Bos taurus.
The species entered for assay [3] is Bos taurus. Briefly: Activation of actin-stimulated bovine cardiac myosin S1 fragment ATPase activity in sarcomere at 5 uM after 10 mins by spectrophotometric analysis relative to control.
The next assay is filed under the species Oryctolagus cuniculus. Briefly: Activation of actin-stimulated rabbit psoas skeletal muscle myosin S1 fragment ATPase activity at 100 uM after 10 mins by spectrophotometric analysis relative to control.
For assay [4], the species on record is Bos taurus. The assay can be described thus: Activation of actin-stimulated bovine cardiac myosin S1 fragment ATPase activity in sarcomere at 1 uM after 10 mins by spectrophotometric analysis relative to control.
The species named for another assay is Gallus gallus. Briefly: Activation of actin-stimulated chicken gizzard smooth muscle myosin S1 fragment ATPase activity at 100 uM after 10 mins by spectrophotometric analysis relative to control.

The structures appear in SMILES notation. pEC50: −log10 of the molar value.

With `CN(C)S(=O)(=O)c1ccc(CCCc2nc(-c3ccccc3)no2)cc1`, the Activity in the assay listed under Bos taurus [1] was determined as 37.2%.

For the compound `COc1ccc(-c2nnc(CCCc3ccccc3)o2)cc1`, in the assay listed under Bos taurus [1], the Activity is 37.3%.

As to `COc1ccc(Cc2nnc(CCCc3ccccc3)o2)cc1OC`, in the assay listed under Bos taurus [1], the Activity is 16.1%.

In the case of `COc1ccc(Cc2noc(CCCc3ccccc3)n2)cc1OC`, the Activity in the assay filed under Bos taurus [1] was determined as 18.4%.

Turning to `c1ccc(CCCNc2nnc(-c3ccccc3)o2)cc1`, the pEC50 in assay [2] is 5.28. The Activity came to 42.6% in the assay filed under Bos taurus [3]; 1.9% in the assay listed under Oryctolagus cuniculus; 50.5% in the assay filed under Bos taurus [1]; 28.4% in the assay listed under Bos taurus [4]; 2.3% in the assay listed under Gallus gallus.

Compound `COC(=O)N1CCN(Cc2cccc(NC(=O)Nc3ccc(C)nc3)c2F)CC1` [OMECAMTIV MECARBIL] gave a negative-log EC50 (pEC50) in assay [2] of 5.47. The Activity in the assay listed under Bos taurus [3] was 49.9%; in the assay filed under Oryctolagus cuniculus, 2.2%; in the assay listed under Bos taurus [1] it was 56.5%; in the assay filed under Bos taurus [4], 31.2%; in the assay filed under Gallus gallus it was -3.8%.

With `c1ccc(CCCc2nnc(C3CCOCC3)o2)cc1`, the Activity in the assay listed under Bos taurus [1] was found to be 30.8%.

As to `COc1ccc(-c2noc(CCCc3ccccc3)n2)cc1OC`, the Activity in the assay listed under Bos taurus [1] was found to be 46.8%.

In turn, `c1ccc(CCCc2nc(Cc3ccccc3)no2)cc1` gave a pEC50 in assay [2] of 5.52. Besides, the Activity was 60.3% in the assay filed under Bos taurus [3]; 3.3% in the assay listed under Oryctolagus cuniculus; 66.3% in the assay listed under Bos taurus [1]; 34.1% in the assay listed under Bos taurus [4]; 4.2% in the assay filed under Gallus gallus.

`NS(=O)(=O)c1ccc(-c2nnc(NCCCc3ccccc3)o2)cc1`: the Activity in the assay listed under Bos taurus [1] was found to be 33%.

Turning to `CN(C)S(=O)(=O)c1ccc(CCc2nnc(CCCc3ccccc3)o2)cc1`, the Activity in the assay listed under Bos taurus [1] was found to be 33.6%.

In assay [2], `c1ccc(CCCc2nnc(Cc3ccccc3)o2)cc1` gave a negative-log EC50 (pEC50) of 5.51. The Activity was 60.2% in the assay listed under Bos taurus [3]; 1.8% in the assay listed under Oryctolagus cuniculus; 62.9% in the assay listed under Bos taurus [1]; 33.5% in the assay filed under Bos taurus [4]; -3.9% in the assay filed under Gallus gallus.

As for `COc1ccc(-c2nnc(NCCCc3ccccc3)o2)cc1OC`, in the assay listed under Bos taurus [1], the Activity turned out to be 41.7%.

Take `c1ccc(CCCc2nnc(CCc3ccccc3)o2)cc1`: the pEC50 in assay [2] is 5.35. The Activity in the assay filed under Bos taurus [3] is 45.3%; in the assay filed under Oryctolagus cuniculus it was -3.1%; in the assay listed under Bos taurus [1] it was 51%; in the assay listed under Bos taurus [4], 29.7%; in the assay filed under Gallus gallus it was 4.1%.

Turning to `c1ccc(CCCCc2nnc(-c3ccncc3)o2)cc1`, the Activity in the assay listed under Bos taurus [1] was found to be 8.6%.

For the compound `c1ccc(CCCNc2nnc(-c3ccncc3)o2)cc1`, the Activity in the assay filed under Bos taurus [1] is 22.9%.

As for `CN(C)S(=O)(=O)c1ccc(CCCc2nnc(-c3ccccc3)o2)cc1`, in the assay filed under Bos taurus [1], the Activity was 11.9%.

`NS(=O)(=O)c1ccc(-c2nnc(CCCc3ccccc3)o2)cc1`: the Activity in the assay filed under Bos taurus [1] was 22.5%.

As to `c1ccc(CCCc2nnc(CCCc3ccccc3)o2)cc1`, the Activity in the assay listed under Bos taurus [1] is 2.5%.

As for `c1ccc(CCCc2nnc(-c3ccncc3)o2)cc1`, the Activity in the assay filed under Bos taurus [1] was 15.9%.

As for `Fc1ccc(Cc2nnc(CCCc3ccccc3)o2)cc1`, the Activity in the assay listed under Bos taurus [1] is 4.2%.

Take `COc1ccc(-c2nnc(CCCc3ccccc3)o2)cc1OC`: the Activity in the assay listed under Bos taurus [1] came out at 40.2%.

Turning to `Cc1ccc2c(c1)C(=O)[C@]1(O)CCN(c3ccccc3)C1=N2`, the Activity in the assay listed under Oryctolagus cuniculus is -54.1%; in the assay filed under Gallus gallus it was -37.3%.

Turning to `c1ccc(CCCc2nnc(-c3ccccc3)o2)cc1`, the negative logarithm of the EC50 (pEC50) in assay [2] is 5.49. Besides, the Activity in the assay filed under Bos taurus [3] was 55.2%; in the assay filed under Oryctolagus cuniculus, -2.5%; in the assay filed under Bos taurus [1] it was 59.2%; in the assay listed under Bos taurus [4], 32.5%; in the assay filed under Gallus gallus it was -3.7%.

With `c1ccc(CCCc2nc(-c3ccccc3)no2)cc1`, in assay [2], the negative logarithm of the EC50 (pEC50) was 5.50. Also, the Activity in the assay filed under Bos taurus [3] was 56.4%; in the assay filed under Oryctolagus cuniculus it was -5.3%; in the assay filed under Bos taurus [1], 60.7%; in the assay listed under Bos taurus [4], 31.9%; in the assay filed under Gallus gallus, -2.4%.

Consider `c1ccc(CCCc2nnc(CCC3CCCCC3)o2)cc1`, for which the negative logarithm of the EC50 (pEC50) in assay [2] was 5.46. Besides, the Activity in the assay listed under Bos taurus [3] is 53.1%; in the assay filed under Oryctolagus cuniculus, -2.7%; in the assay listed under Bos taurus [1] it was 58.9%; in the assay listed under Bos taurus [4] it was 30%; in the assay listed under Gallus gallus, 4.5%.

In the case of `c1ccc(CCNc2nnc(-c3ccccc3)o2)cc1`, the Activity in the assay filed under Bos taurus [1] turned out to be 35.2%.

Consider `c1ccc(CCCCNc2nnc(-c3ccccc3)o2)cc1`, for which the Activity in the assay listed under Bos taurus [1] came to 32.8%.

`c1ccc(CCCCc2nnc(C3CCOCC3)o2)cc1`: the Activity in the assay filed under Bos taurus [1] stood at 11.2%.

Consider `COc1ccc(CCc2nnc(CCCc3ccccc3)o2)cc1OC`, for which the Activity in the assay filed under Bos taurus [1] was determined as 38.7%.

With `c1ccc(CCCCc2nc(-c3ccccc3)no2)cc1`, the Activity in the assay listed under Bos taurus [1] is 35.9%.
